From ChEMBL document CHEMBL1909046, “DrugMatrix in vitro pharmacology data” come the findings set out here.

Chain of Mitogen-activated protein kinase 1 (P28482 whole entry): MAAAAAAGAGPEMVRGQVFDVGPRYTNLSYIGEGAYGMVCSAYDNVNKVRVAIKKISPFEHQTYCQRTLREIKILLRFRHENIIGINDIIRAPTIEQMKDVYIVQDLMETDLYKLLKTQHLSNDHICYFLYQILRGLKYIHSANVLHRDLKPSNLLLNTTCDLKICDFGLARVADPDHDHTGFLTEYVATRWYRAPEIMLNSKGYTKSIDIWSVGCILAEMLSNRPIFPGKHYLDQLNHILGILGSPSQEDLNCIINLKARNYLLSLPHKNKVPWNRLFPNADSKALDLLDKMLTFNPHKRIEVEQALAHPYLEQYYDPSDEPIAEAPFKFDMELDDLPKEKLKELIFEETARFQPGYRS

The first assay addresses Protein kinase C alpha type (Homo sapiens, UniProt P17252). Format: cell-based. To be noted: sf9.
Regarding `CC1=C(CC(=O)O)c2cc(F)ccc2/C1=C\c1ccc([S+](C)[O-])cc1` (stereo not drawn), the IC50 result is reported as “Not Active”.

For `N[C@H](CSC(=S)NCc1ccccc1)C(=O)O`, the IC50 result is “Not Active”.

Consider `Clc1ccc2c(c1)C(N1CCNCC1)=Nc1ccccc1O2` [AMOXAPINE], for which the half-inhibitory concentration (IC50) entry is “Not Active”.

Turning to `COc1cc2c(c(OC)c1OC)-c1ccc(OC)c(=O)cc1[C@@H](NC(C)=O)CC2` [COLCHICINE], the IC50 entry was “Not Active”.

`CN1CCC(=C2c3ccccc3C=Cc3ccccc32)CC1` [CYPROHEPTADINE]: the IC50 result is “Not Active”.

`CC/C(=C(/CC)c1ccc(O)cc1)c1ccc(O)cc1` [DIETHYLSTILBESTROL]: the IC50 entry is “Not Active”.

On to `C=CCN1CC[C@]23c4c5ccc(O)c4O[C@H]2C(=O)CC[C@@]3(O)[C@H]1C5` [NALOXONE], for which the IC50 result was “Not Active”.

The target in the next assay is Estrogen receptor beta (Homo sapiens, UniProt Q92731). The following applies: sf9. Also: in other assays of this panel Not Active means under 50% inhibition at 10 µM.
Chain of Estrogen receptor beta (Q92731 whole entry): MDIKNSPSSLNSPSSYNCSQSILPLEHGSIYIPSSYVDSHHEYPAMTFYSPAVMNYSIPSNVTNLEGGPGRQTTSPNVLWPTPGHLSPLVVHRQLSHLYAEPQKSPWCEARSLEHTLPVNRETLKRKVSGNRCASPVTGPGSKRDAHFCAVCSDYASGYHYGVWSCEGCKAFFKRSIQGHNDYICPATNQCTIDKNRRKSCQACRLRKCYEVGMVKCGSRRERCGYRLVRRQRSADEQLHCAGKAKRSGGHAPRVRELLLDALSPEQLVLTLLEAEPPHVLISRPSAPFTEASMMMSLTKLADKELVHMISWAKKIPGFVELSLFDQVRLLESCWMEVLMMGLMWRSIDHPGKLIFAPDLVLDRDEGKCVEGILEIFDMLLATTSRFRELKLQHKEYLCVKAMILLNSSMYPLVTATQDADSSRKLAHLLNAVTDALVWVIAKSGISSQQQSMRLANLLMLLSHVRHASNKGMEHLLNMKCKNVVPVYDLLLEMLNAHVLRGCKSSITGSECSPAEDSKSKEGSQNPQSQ
Turning to `CC1=C(CC(=O)O)c2cc(F)ccc2/C1=C\c1ccc([S+](C)[O-])cc1` (stereo not drawn), the IC50 result was “Not Active”.

As to `N[C@H](CSC(=S)NCc1ccccc1)C(=O)O`, the IC50 result was “Not Active”.

As to `Clc1ccc2c(c1)C(N1CCNCC1)=Nc1ccccc1O2` [AMOXAPINE], the IC50 result is on record as “Not Active”.

As to `COc1cc2c(c(OC)c1OC)-c1ccc(OC)c(=O)cc1[C@@H](NC(C)=O)CC2` [COLCHICINE], the half-maximal inhibitory concentration (IC50) result is listed as “Not Active”.

In the case of `CN1CCC(=C2c3ccccc3C=Cc3ccccc32)CC1` [CYPROHEPTADINE], the IC50 result is given as “Not Active”.

For the compound `CC/C(=C(/CC)c1ccc(O)cc1)c1ccc(O)cc1` [DIETHYLSTILBESTROL], the IC50 entry is given as “Not Active”.

Turning to `C=CCN1CC[C@]23c4c5ccc(O)c4O[C@H]2C(=O)CC[C@@]3(O)[C@H]1C5` [NALOXONE], the IC50 entry is given as “Not Active”.

Another assay addresses Mitogen-activated protein kinase 1 (Homo sapiens, UniProt P28482). Description: DRUGMATRIX: Protein Serine/Threonine Kinase, ERK2 enzyme inhibition (substrate: Myelin Basic Protein). Set-up: species or system Escherichia coli. To be noted: Not Active = under 50% inhibition at 10 µM.
In the case of `CC1=C(CC(=O)O)c2cc(F)ccc2/C1=C\c1ccc([S+](C)[O-])cc1` (stereo not drawn), the IC50 result was “Not Active”.

Regarding `N[C@H](CSC(=S)NCc1ccccc1)C(=O)O`, the half-maximal inhibitory concentration (IC50) entry is on record as “Not Active”.

Turning to `Clc1ccc2c(c1)C(N1CCNCC1)=Nc1ccccc1O2` [AMOXAPINE], the IC50 entry was “Not Active”.

For `COc1cc2c(c(OC)c1OC)-c1ccc(OC)c(=O)cc1[C@@H](NC(C)=O)CC2` [COLCHICINE], the IC50 entry is “Not Active”.

With `CN1CCC(=C2c3ccccc3C=Cc3ccccc32)CC1` [CYPROHEPTADINE], the IC50 result is recorded as “Not Active”.

Turning to `CC/C(=C(/CC)c1ccc(O)cc1)c1ccc(O)cc1` [DIETHYLSTILBESTROL], the IC50 entry was “Not Active”.

Regarding `C=CCN1CC[C@]23c4c5ccc(O)c4O[C@H]2C(=O)CC[C@@]3(O)[C@H]1C5` [NALOXONE], the 50% inhibitory concentration (IC50) entry is given as “Not Active”.

Tested on in another assay: not listed separately
In words: DRUGMATRIX: Glutamate, NMDA, Phencyclidine radioligand binding (ligand: [3H] TCP). To be noted: Not Active = under 50% inhibition at 10 µM. It counts as cell membranes, Rattus norvegicus, Wistar, Cerebral cortex, Membrane.
For `CC1=C(CC(=O)O)c2cc(F)ccc2/C1=C\c1ccc([S+](C)[O-])cc1` (stereo not drawn), the IC50 result is “Not Active” and the Ki entry is given as “Not Active”.

On to `N[C@H](CSC(=S)NCc1ccccc1)C(=O)O`, for which the IC50 result is on record as “Not Active” and the Ki result was “Not Active”.

In the next assay the target is Delta-type opioid receptor (Homo sapiens, UniProt P41143). Format: cell membranes, HEK293, Membrane. To be noted: hek293. Also: in other assays of this panel Not Active means under 50% inhibition at 10 µM.
Chain of Delta-type opioid receptor (P41143 whole entry): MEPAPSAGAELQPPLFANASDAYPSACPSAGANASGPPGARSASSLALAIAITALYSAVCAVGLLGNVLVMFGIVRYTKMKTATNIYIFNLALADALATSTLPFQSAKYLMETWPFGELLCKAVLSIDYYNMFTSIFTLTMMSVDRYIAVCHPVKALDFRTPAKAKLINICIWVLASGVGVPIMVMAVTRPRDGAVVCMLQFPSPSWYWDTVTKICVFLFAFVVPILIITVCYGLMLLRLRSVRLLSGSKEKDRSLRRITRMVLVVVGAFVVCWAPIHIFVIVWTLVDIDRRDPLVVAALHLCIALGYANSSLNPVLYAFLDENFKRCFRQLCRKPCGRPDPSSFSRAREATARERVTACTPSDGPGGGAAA
Regarding `CC1=C(CC(=O)O)c2cc(F)ccc2/C1=C\c1ccc([S+](C)[O-])cc1` (stereo not drawn), the IC50 entry is reported as “Not Active”.

Turning to `N[C@H](CSC(=S)NCc1ccccc1)C(=O)O`, the IC50 result was “Not Active”.

Regarding `Clc1ccc2c(c1)C(N1CCNCC1)=Nc1ccccc1O2` [AMOXAPINE], the IC50 entry is given as “Not Active”.

For `COc1cc2c(c(OC)c1OC)-c1ccc(OC)c(=O)cc1[C@@H](NC(C)=O)CC2` [COLCHICINE], the half-inhibitory concentration (IC50) entry is “Not Active”.

With `CN1CCC(=C2c3ccccc3C=Cc3ccccc32)CC1` [CYPROHEPTADINE], the IC50 result is given as “Not Active”.

The target of the next assay is C-C chemokine receptor type 2 (Homo sapiens, UniProt P41597). It counts as cell membranes, CHO-K1, Membrane. The following applies: cho-k1. Also: in other assays of this panel Not Active means under 50% inhibition at 10 µM.
Chain of C-C chemokine receptor type 2 (P41597 whole entry): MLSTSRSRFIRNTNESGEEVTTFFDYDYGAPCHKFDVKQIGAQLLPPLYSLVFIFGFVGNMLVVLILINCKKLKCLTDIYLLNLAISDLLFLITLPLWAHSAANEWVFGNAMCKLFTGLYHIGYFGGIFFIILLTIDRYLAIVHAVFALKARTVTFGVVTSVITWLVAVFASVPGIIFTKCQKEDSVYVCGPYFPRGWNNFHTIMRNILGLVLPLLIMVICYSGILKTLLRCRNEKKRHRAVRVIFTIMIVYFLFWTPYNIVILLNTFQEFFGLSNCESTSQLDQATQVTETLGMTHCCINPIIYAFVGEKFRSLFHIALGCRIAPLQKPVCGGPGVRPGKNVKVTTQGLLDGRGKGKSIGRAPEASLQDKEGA
As for `CC1=C(CC(=O)O)c2cc(F)ccc2/C1=C\c1ccc([S+](C)[O-])cc1` (stereo not drawn), the IC50 result is given as “Not Active”.

On to `N[C@H](CSC(=S)NCc1ccccc1)C(=O)O`, for which the IC50 result is “Not Active”.

Consider `Clc1ccc2c(c1)C(N1CCNCC1)=Nc1ccccc1O2` [AMOXAPINE], for which the IC50 result is recorded as “Not Active”.

`COc1cc2c(c(OC)c1OC)-c1ccc(OC)c(=O)cc1[C@@H](NC(C)=O)CC2` [COLCHICINE]: the half-maximal inhibitory concentration (IC50) result is “Not Active”.

Regarding `CN1CCC(=C2c3ccccc3C=Cc3ccccc32)CC1` [CYPROHEPTADINE], the IC50 result is recorded as “Not Active”.

As to `CC/C(=C(/CC)c1ccc(O)cc1)c1ccc(O)cc1` [DIETHYLSTILBESTROL], the 50% inhibitory concentration (IC50) result is recorded as “Not Active”.

Regarding `C=CCN1CC[C@]23c4c5ccc(O)c4O[C@H]2C(=O)CC[C@@]3(O)[C@H]1C5` [NALOXONE], the IC50 result is on record as “Not Active”.

Tested on in another assay: not listed separately
Description: DRUGMATRIX: Platelet-Derived Growth Factor (PDGF) radioligand binding (ligand: [125I] PDGF). It counts as cell-based. The following applies: nih3t3; Not Active = under 50% inhibition at 10 µM.
For `CC1=C(CC(=O)O)c2cc(F)ccc2/C1=C\c1ccc([S+](C)[O-])cc1` (stereo not drawn), the IC50 result is on record as “Not Active” and the Ki entry was “Not Active”.

For the compound `N[C@H](CSC(=S)NCc1ccccc1)C(=O)O`, the IC50 result is given as “Not Active” and the Ki result is reported as “Not Active”.

Tested on in the next assay: not listed separately
In words: DRUGMATRIX: Atrial Natriuretic Factor (ANF) radioligand binding (ligand: [125I] ANF (rat)). Format: cell membranes, Cavia porcellus, Dunkin-Hartley, Adrenal gland, Membrane. The following applies: Not Active = under 50% inhibition at 10 µM.
As to `CC1=C(CC(=O)O)c2cc(F)ccc2/C1=C\c1ccc([S+](C)[O-])cc1` (stereo not drawn), the concentration for half-maximal inhibition (IC50) result is “Not Active” and the Ki entry was “Not Active”.

`N[C@H](CSC(=S)NCc1ccccc1)C(=O)O`: the IC50 result is recorded as “Not Active” and the Ki result is recorded as “Not Active”.

The target of the next assay is Glycine receptor (Rattus norvegicus, UniProt P22771+P24524+P07727+P20781). It counts as cell membranes, Wistar, Spinal cord, Membrane. Also: in other assays of this panel Not Active means under 50% inhibition at 10 µM.
Details: not given
On to `CC1=C(CC(=O)O)c2cc(F)ccc2/C1=C\c1ccc([S+](C)[O-])cc1` (stereo not drawn), for which the half-inhibitory concentration (IC50) result is given as “Not Active”.

With `N[C@H](CSC(=S)NCc1ccccc1)C(=O)O`, the IC50 result is given as “Not Active”.

On to `Clc1ccc2c(c1)C(N1CCNCC1)=Nc1ccccc1O2` [AMOXAPINE], for which the IC50 result is reported as “Not Active”.

Turning to `COc1cc2c(c(OC)c1OC)-c1ccc(OC)c(=O)cc1[C@@H](NC(C)=O)CC2` [COLCHICINE], the IC50 entry is recorded as “Not Active”.

As to `CN1CCC(=C2c3ccccc3C=Cc3ccccc32)CC1` [CYPROHEPTADINE], the IC50 result is listed as “Not Active”.

Regarding `CC/C(=C(/CC)c1ccc(O)cc1)c1ccc(O)cc1` [DIETHYLSTILBESTROL], the IC50 result is on record as “Not Active”.

Take `C=CCN1CC[C@]23c4c5ccc(O)c4O[C@H]2C(=O)CC[C@@]3(O)[C@H]1C5` [NALOXONE]: the IC50 entry is listed as “Not Active”.

The target of a further assay is Kappa-type opioid receptor (Homo sapiens, UniProt P41145). Description: DRUGMATRIX: Opiate kappa (OP2, KOP) radioligand binding (ligand: [3H] Diprenorphine). Format: cell membranes, HEK293, Membrane. To be noted: hek293; Not Active = under 50% inhibition at 10 µM.
Chain of Kappa-type opioid receptor (P41145 whole entry): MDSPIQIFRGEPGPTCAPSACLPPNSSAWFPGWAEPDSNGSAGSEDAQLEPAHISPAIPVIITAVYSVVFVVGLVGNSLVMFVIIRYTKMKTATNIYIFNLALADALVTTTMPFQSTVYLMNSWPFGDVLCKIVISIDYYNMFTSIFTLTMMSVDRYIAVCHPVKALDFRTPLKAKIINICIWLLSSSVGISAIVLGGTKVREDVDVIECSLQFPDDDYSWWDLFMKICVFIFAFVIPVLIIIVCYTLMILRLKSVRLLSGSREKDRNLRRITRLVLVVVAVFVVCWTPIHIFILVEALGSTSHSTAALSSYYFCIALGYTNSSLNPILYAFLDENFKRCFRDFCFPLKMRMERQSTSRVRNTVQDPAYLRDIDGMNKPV
As for `CC1=C(CC(=O)O)c2cc(F)ccc2/C1=C\c1ccc([S+](C)[O-])cc1` (stereo not drawn), the IC50 entry is recorded as “Not Active”.

In the case of `N[C@H](CSC(=S)NCc1ccccc1)C(=O)O`, the IC50 entry is “Not Active”.

Consider `Clc1ccc2c(c1)C(N1CCNCC1)=Nc1ccccc1O2` [AMOXAPINE], for which the IC50 entry is given as “Not Active”.

On to `CN1CCC(=C2c3ccccc3C=Cc3ccccc32)CC1` [CYPROHEPTADINE], for which the IC50 result is reported as “Not Active”.

The target of a further assay is Mitogen-activated protein kinase 14 (Homo sapiens, UniProt Q16539). Set-up: species or system Escherichia coli.
Chain of Mitogen-activated protein kinase 14 (Q16539 whole entry): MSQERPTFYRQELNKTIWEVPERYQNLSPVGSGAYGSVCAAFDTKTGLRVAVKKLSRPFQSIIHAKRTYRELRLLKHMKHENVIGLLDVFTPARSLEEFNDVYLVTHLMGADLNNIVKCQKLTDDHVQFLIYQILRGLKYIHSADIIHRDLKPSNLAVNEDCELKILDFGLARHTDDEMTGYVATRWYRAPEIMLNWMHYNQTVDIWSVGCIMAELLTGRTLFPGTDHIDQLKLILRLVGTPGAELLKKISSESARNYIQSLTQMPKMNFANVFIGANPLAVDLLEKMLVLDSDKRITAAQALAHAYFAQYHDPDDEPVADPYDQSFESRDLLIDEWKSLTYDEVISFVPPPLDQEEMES
Details: not given
As for `CC1=C(CC(=O)O)c2cc(F)ccc2/C1=C\c1ccc([S+](C)[O-])cc1` (stereo not drawn), the IC50 entry is reported as “Not Active”.

With `N[C@H](CSC(=S)NCc1ccccc1)C(=O)O`, the IC50 result is reported as “Not Active”.

Consider `Clc1ccc2c(c1)C(N1CCNCC1)=Nc1ccccc1O2` [AMOXAPINE], for which the IC50 entry is “Not Active”.

As to `COc1cc2c(c(OC)c1OC)-c1ccc(OC)c(=O)cc1[C@@H](NC(C)=O)CC2` [COLCHICINE], the half-maximal inhibitory concentration (IC50) result was “Not Active”.

As for `CN1CCC(=C2c3ccccc3C=Cc3ccccc32)CC1` [CYPROHEPTADINE], the concentration for half-maximal inhibition (IC50) result is recorded as “Not Active”.

For the compound `C=CCN1CC[C@]23c4c5ccc(O)c4O[C@H]2C(=O)CC[C@@]3(O)[C@H]1C5` [NALOXONE], the concentration for half-maximal inhibition (IC50) result is “Not Active”.

The same assay, now with this note: read-out: IC50.
Take `CC/C(=C(/CC)c1ccc(O)cc1)c1ccc(O)cc1` [DIETHYLSTILBESTROL]: the IC50 worked out at 32.9 µM.

By IC50 is commonly meant the midpoint of a concentration-inhibition curve.
